Source: ChEMBL document CHEMBL1671722, “Comparative in vitro activity profiles of novel bis-indole antibacterials against gram-positive and gram-negative clinical isolates” (Antimicrob Agents Chemother, 2010)
Converted amounts (≈) assume the structure as drawn.

How the values were obtained:
[1] = test system: Enterococcus faecium; assay: Antimicrobial activity against vancomycin-resistant Enterococcus faecium by broth microdilution method; assay type: functional
[2] = test system: Staphylococcus epidermidis; assay: Antimicrobial activity against methicillin-susceptible Staphylococcus epidermidis by broth microdilution method; assay type: functional
[3] = test system: Staphylococcus epidermidis; assay: Antimicrobial activity against methicillin-resistant Staphylococcus epidermidis by broth microdilution method; assay type: functional
[4] = test system: Acinetobacter baumannii; assay: Antimicrobial activity against Acinetobacter baumannii by broth microdilution method; assay type: functional
[5] = test system: Streptococcus agalactiae; assay: Antimicrobial activity against Streptococcus agalactiae by broth microdilution method; assay type: functional
[6] = test system: Clostridioides difficile; assay: Antimicrobial activity against Clostridium difficile by broth microdilution method; assay type: functional
[7] = test system: Escherichia coli; assay: Antimicrobial activity against Escherichia coli by broth microdilution method; assay type: functional
[8] = test system: Burkholderia cepacia; assay: Antimicrobial activity against Burkholderia cepacia by broth microdilution method; assay type: functional
[9] = test system: Enterococcus faecalis; assay: Antimicrobial activity against vancomycin-resistant Enterococcus faecalis by broth microdilution method; assay type: functional
[10] = test system: Streptococcus pneumoniae; assay: Antimicrobial activity against penicillin-susceptible Streptococcus pneumoniae by broth microdilution method; assay type: functional
[11] = test system: Proteus mirabilis; assay: Antimicrobial activity against Proteus mirabilis by broth microdilution method; assay type: functional
[12] = test system: Serratia marcescens; assay: Antimicrobial activity against Serratia marcescens by broth microdilution method; assay type: functional
[13] = test system: Staphylococcus aureus; assay: Antimicrobial activity against methicillin-resistant Staphylococcus aureus by broth microdilution method; assay type: functional
[14] = test system: Streptococcus pneumoniae; assay: Antimicrobial activity against penicillin-intermediate Streptococcus pneumoniae by broth microdilution method; assay type: functional
[15] = test system: Klebsiella pneumoniae; assay: Antimicrobial activity against ESBL-production Klebsiella pneumoniae by broth microdilution method; assay type: functional
[16] = test system: Klebsiella pneumoniae; assay: Antimicrobial activity against Klebsiella pneumoniae by broth microdilution method; assay type: functional
[17] = Cytotoxicity against HeLa cells after 3 days by MTS assay; assay type: cell-based; conditions: human
[18] = test system: Enterococcus faecalis; assay: Antimicrobial activity against vancomycin-susceptible Enterococcus faecalis by broth microdilution method; assay type: functional
[19] = test system: Acinetobacter baumannii; assay: Antimicrobial activity against multiple dug-resistant Acinetobacter baumannii by broth microdilution method; assay type: functional
[20] = test system: Enterococcus faecium; assay: Antimicrobial activity against vancomycin-susceptible Enterococcus faecium by broth microdilution method; assay type: functional
[21] = test system: Haemophilus influenzae; assay: Antimicrobial activity against Haemophilus influenzae by broth microdilution method; assay type: functional
[22] = test system: Staphylococcus aureus; assay: Antimicrobial activity against methicillin-susceptible Staphylococcus aureus by broth microdilution method; assay type: functional
[23] = test system: Pseudomonas aeruginosa; assay: Antimicrobial activity against Pseudomonas aeruginosa by broth microdilution method; assay type: functional
[24] = Protein binding to serum; assay type: ADME, cell-free; conditions: read-out: PB (converted)
[25] = test system: Streptococcus pneumoniae; assay: Antimicrobial activity against penicillin-resistant Streptococcus pneumoniae by broth microdilution method; assay type: functional

**Q.** Which MIC50 [1] does the source give for `c1cc2cc(-c3ccc(-c4cc5ccc(C6=NCCN6)cc5[nH]4)cc3)[nH]c2cc1C1=NCCN1` here?
**A.** Its MIC50 is 4 ng/mL (≈ 0.009 µM).

**Q.** And the MIC90 [1]?
**A.** Its MIC90 is 4 ng/mL (≈ 0.009 µM).

**Q.** What about the MIC50 [2] of the same molecule?
**A.** The MIC50 was 8 ng/mL (≈ 0.018 µM).

**Q.** What about the MIC90 [2] of the same molecule?
**A.** Its MIC90 is 0.03 µg/mL (≈ 0.0675 µM).

**Q.** And the MIC50 [3]?
**A.** The MIC50 was 0.015 µg/mL (≈ 0.0337 µM).

**Q.** What about the MIC90 [3] of the same molecule?
**A.** The MIC90 was 0.03 µg/mL (≈ 0.0675 µM).

**Q.** And the MIC50 [4]?
**A.** Its MIC50 is 8 µg/mL (≈ 18 µM).

**Q.** What about the MIC90 [4] of the same molecule?
**A.** Its MIC90 is > 16 µg/mL.

**Q.** And the MIC [5]?
**A.** Its MIC is 0.03 µg/mL (≈ 0.0675 µM).

**Q.** What about the MIC50 [5] of the same molecule?
**A.** The MIC50 was 0.03 µg/mL (≈ 0.0675 µM).

**Q.** And the MIC90 [5]?
**A.** The MIC90 was 0.03 µg/mL (≈ 0.0675 µM).

**Q.** What about the MIC50 [6] of the same molecule?
**A.** Its MIC50 is 0.06 µg/mL (≈ 0.135 µM).

**Q.** What about the MIC90 [6] of the same molecule?
**A.** The MIC90 was 0.12 µg/mL (≈ 0.27 µM).

**Q.** What about the MIC50 [7] of the same molecule?
**A.** The MIC50 was 0.12 µg/mL (≈ 0.27 µM).

**Q.** What about the MIC90 [7] of the same molecule?
**A.** The MIC90 was 0.5 µg/mL (≈ 1.12 µM).

**Q.** And the MIC [8]?
**A.** Its MIC is ≤ 0.015 µg/mL.

**Q.** What about the MIC50 [8] of the same molecule?
**A.** Its MIC50 is ≤ 0.015 µg/mL.

**Q.** What about the MIC90 [8] of the same molecule?
**A.** Its MIC90 is 0.06 µg/mL (≈ 0.135 µM).

**Q.** And the MIC50 [9]?
**A.** Its MIC50 is 0.03 µg/mL (≈ 0.0675 µM).

**Q.** And the MIC90 [9]?
**A.** The MIC90 was 0.06 µg/mL (≈ 0.135 µM).

**Q.** And the MIC50 [10]?
**A.** Its MIC50 is 0.015 µg/mL (≈ 0.0337 µM).

**Q.** And the MIC90 [10]?
**A.** Its MIC90 is 0.03 µg/mL (≈ 0.0675 µM).

**Q.** And the MIC50 [11]?
**A.** Its MIC50 is > 16 µg/mL.

**Q.** And the MIC90 [11]?
**A.** Its MIC90 is > 16 µg/mL.

**Q.** And the MIC50 [12]?
**A.** The MIC50 was 1 µg/mL (≈ 2.25 µM).

**Q.** And the MIC90 [12]?
**A.** Its MIC90 is 2 µg/mL (≈ 4.5 µM).

**Q.** What about the MIC [13] of the same molecule?
**A.** The MIC was 0.06 µg/mL (≈ 0.135 µM).

**Q.** And the MIC50 [13]?
**A.** The MIC50 was 0.06 µg/mL (≈ 0.135 µM).

**Q.** And the MIC90 [13]?
**A.** Its MIC90 is 0.12 µg/mL (≈ 0.27 µM).

**Q.** And the MIC50 [14]?
**A.** Its MIC50 is 0.015 µg/mL (≈ 0.0337 µM).

**Q.** And the MIC90 [14]?
**A.** Its MIC90 is 0.12 µg/mL (≈ 0.27 µM).

**Q.** And the MIC50 [15]?
**A.** Its MIC50 is 1 µg/mL (≈ 2.25 µM).

**Q.** And the MIC90 [15]?
**A.** The MIC90 was > 16 µg/mL.

**Q.** And the MIC50 [16]?
**A.** The MIC50 was 2 µg/mL (≈ 4.5 µM).

**Q.** What about the MIC90 [16] of the same molecule?
**A.** Its MIC90 is 8 µg/mL (≈ 18 µM).

**Q.** And the CC50 at 72 h [17]?
**A.** The CC50 at 72 h was 33 µg/mL (≈ 74.2 µM).

**Q.** What about the MIC50 [18] of the same molecule?
**A.** The MIC50 was 0.06 µg/mL (≈ 0.135 µM).

**Q.** What about the MIC90 [18] of the same molecule?
**A.** Its MIC90 is 0.06 µg/mL (≈ 0.135 µM).

**Q.** And the MIC50 [19]?
**A.** Its MIC50 is > 16 µg/mL.

**Q.** What about the MIC50 [20] of the same molecule?
**A.** Its MIC50 is 4 ng/mL (≈ 0.009 µM).

**Q.** And the MIC90 [20]?
**A.** The MIC90 was 0.015 µg/mL (≈ 0.0337 µM).

**Q.** And the MIC50 [21]?
**A.** Its MIC50 is 4 µg/mL (≈ 9 µM).

**Q.** What about the MIC90 [21] of the same molecule?
**A.** The MIC90 was > 16 µg/mL.

**Q.** What about the MIC50 [22] of the same molecule?
**A.** The MIC50 was 0.12 µg/mL (≈ 0.27 µM).

**Q.** And the MIC90 [22]?
**A.** Its MIC90 is 0.25 µg/mL (≈ 0.562 µM).

**Q.** And the MIC50 [23]?
**A.** Its MIC50 is > 16 µg/mL.

**Q.** And the MIC90 [23]?
**A.** Its MIC90 is > 16 µg/mL.

**Q.** What about the fraction unbound [24] of the same molecule?
**A.** Its fraction unbound is 0.75.

**Q.** And the MIC [25]?
**A.** Its MIC is 0.03 µg/mL (≈ 0.0675 µM).

**Q.** What about the MIC50 [25] of the same molecule?
**A.** Its MIC50 is 0.03 µg/mL (≈ 0.0675 µM).

**Q.** What about the MIC90 [25] of the same molecule?
**A.** Its MIC90 is 0.06 µg/mL (≈ 0.135 µM).
